Source: patent publication US9474790B2, “Stable, protracted GLP-1/glucagon receptor co-agonists for medical use” (Novo Nordisk A/S, priority 2013, dated 2016)
Numbered stars: 1 amine (or outer) side, 2 acyl side, 3 side chain; on linkers, the order of the positions; unused ones are H or OH. Bridge positions count the residues as written; N and C are the ends. Square brackets hold non-standard residues; d marks the D form. Side chains are listed from the residue outwards. Peptide text beside a SMILES is read from it. I, II: the chains in the order shown. * marks the point of attachment. C18 diacid = O=C(O)CCCCCCCCCCCCCCCCC(=O)*; γGlu = O=C(O)[C@H](CCC(=O)[*:2])N[*:1]; Ac4c = NC1(C(=O)O)CCC1; AEEA = NCCOCCOCC(=O)O; Aib = CC(C)(N)C(=O)O

Each compound was assayed against T1, human glucagon receptor (Homo sapiens, UniProt P47871) (assay: Glucagon receptor binding, 125I-glucagon displacement SPA on isolated membranes). Settings: displacement of 125I-glucagon from membranes; read-out: IC50 GlucR.
T1 construct: expressed in transfected cells; host or cells: BHK cells (parent BHK570, CRE luciferase clone BHK/KZ10-20-48), clone pLJ6'-4-25
Experimental: The purpose of this assay was to test the in vitro receptor binding activity (i.e. affinity) of the glucagon derivatives of the invention. The receptor binding activity is a measure of affinity of a derivative for the human glucagon receptor.
The receptor binding of each compound to the human glucagon receptor was measured in a displacement binding assay. In this type of assay a labelled ligand (in this case 125I-glucagon) is bound to the receptor. Each derivative was added in a series of concentrations to isolated membranes containing the human glucagon receptor and displacement of the labelled ligand is monitored. The receptor binding was reported as the concentration at which half of the labelled ligand is displaced from the receptor, the IC50 value.
In order to test the binding of the derivatives to albumin, the assay may be performed in a very low concentration of serum albumin (max. 0.001% final assay concentration) as well as in the presence of a higher concentration of serum albumin (0.2% final assay concentration). An increase of the IC50 value, in the presence of serum albumin indicates an affinity to serum albumin and represents a method to predict a protracted pharmacokinetic profile of the test substance in animal models.
The following chemicals were used in the assay: DMEM w Glutamax (Gibco 61965-026), Pen/strep (Invitrogen 15140-122), G418 (Invitrogen 10131-027), Versene (Gibco 15040), 1 M Hepes (Gibco 15630), PBS (Invitrogen 14190-094), fetal calf serum (Invitrogen 16140-071), MgCl2 (Merck 1.05832.1000), EDTA (Invitrogen 15575-038), CaCl2 (Sigma, C5080), Tween 20 (Amresco 0850C335), ovalbumin (Sigma A5503), SPA particles (wheat germ agglutinin (WGA) SPA beads, Perkin Elmer RPNQ0001), [125I]-glucagon (produced in-house), OptiPlate™-96 (Packard 6005290).
HME buffer consisted of 25 mM HEPES, 2 mM MgCl2 and 1 mM EDTA, and pH was adjusted to 7.4. Assay buffer consisted of 50 mM HEPES supplemented with 5 mM MgCl2, 1 mM CaCl2, 0.02% Tween 20 and 0.1% Ovalbumin, and pH was adjusted to 7.4.
The cells used in this assay (clone BHK hGCGR A3*25) were BHK cells stable transfected with an expression plasmid containing the cDNA encoding the human glucagon receptor.
The cells were grown at 5% CO2 in DMEM, 10% fetal calf serum, 1% Pen/Strep (Penicillin/Streptomycin) and 1.0 mg/ml of the selection marker G418. To make a membrane preparation the cells were grown to approximately 80% confluence. The cells were washed twice in phosphate-buffered saline and harvested. The cells were pelleted using a brief centrifugation and the cell pellet was kept on ice. Lyse the cells by adding approx. 5 ml HME buffer, mix by pipetting and snap freeze in liquid nitrogen. Thaw quickly and add HME buffer to 10 ml. The cell pellet was homogenised with an ULTRA-THURRAX dispersing instrument for 20-30 sec. The homogenate was centrifuged at 20.000×G, 4° C. for 10 min. The pellet was re-suspended (homogenised) in 1-2 ml HME buffer. The protein concentration was determined. The membranes were aliquoted and snap-frozen in liquid nitrogen and stored at minus 80° C.
1. For the receptor binding assay, 50 μl of the assay buffer was added to each well of an assay plate.
2. Test compounds were serially diluted to give the following concentrations: 8×10EE-7 M, 8×10EE-8 M, 8×10EE-9 M, 8×10EE-10 M, 8×10EE-11 M, 8×10EE-12 M and 8×10EE-13 M. Twenty-five μl were added to appropriate wells in the assay plate.
3. Cell membrane aliquots were thawed and diluted to their working concentration. Fifty μl were added to each well in the assay plate.
4. WGA SPA beads were suspended in assay buffer at 20 mg/ml. The suspension was diluted to 10 mg/ml in assay buffer just prior to addition to the assay plate. Fifty μl were added to each well in the assay plate.
5. The incubation was started by adding 25 μl of 480 pM solution of [125I]-glucagon to each well of the assay plate. A 25 μl aliquot was reserved for measuring total counts/well.
6. The assay plate was incubated for 2 h at 25° C.
7. […]

T1 sequence (P47871 26-477): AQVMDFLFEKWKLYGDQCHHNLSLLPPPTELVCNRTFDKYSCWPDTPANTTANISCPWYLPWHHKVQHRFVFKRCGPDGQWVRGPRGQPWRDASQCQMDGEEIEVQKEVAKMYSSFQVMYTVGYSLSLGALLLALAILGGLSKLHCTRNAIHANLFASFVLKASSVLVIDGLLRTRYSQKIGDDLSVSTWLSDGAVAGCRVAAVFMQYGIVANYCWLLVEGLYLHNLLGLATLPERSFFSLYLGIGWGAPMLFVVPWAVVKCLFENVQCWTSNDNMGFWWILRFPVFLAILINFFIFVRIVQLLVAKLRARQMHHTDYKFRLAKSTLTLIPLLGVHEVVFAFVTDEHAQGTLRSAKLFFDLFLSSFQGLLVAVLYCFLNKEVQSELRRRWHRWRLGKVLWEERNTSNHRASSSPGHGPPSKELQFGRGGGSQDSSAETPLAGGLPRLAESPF

Row | IC50 [nM] | SMILES
1 | 6.7 | CC(C)C[C@H](NC(=O)[C@H](CC(C)C)NC(=O)[C@H](Cc1c[nH]c2ccccc12)NC(=O)[C@H](CCC(N)=O)NC(=O)[C@@H](NC(=O)[C@H](Cc1ccccc1)NC(=O)[C@H](CCC(=O)O)NC(=O)[C@H](CCC(N)=O)NC(=O)[C@H](C)NC(=O)[C@H](C)NC(=O)[C@H](CCCCN)NC(=O)[C@H](CO)NC(=O)[C@H](CC(=O)O)NC(=O)[C@H](CC(C)C)NC(=O)[C@H](Cc1ccc(O)cc1)NC(=O)[C@H](CCCCN)NC(=O)[C@H](CO)NC(=O)[C@H](CC(C)C)NC(=O)[C@H](CC(=O)O)NC(=O)[C@H](CO)NC(=O)[C@@H](NC(=O)[C@H](Cc1ccccc1)NC(=O)[C@@H](NC(=O)CNC(=O)[C@H](CCC(N)=O)NC(=O)C(C)(C)NC(=O)[C@@H](N)Cc1c[nH]cn1)[C@@H](C)O)[C@@H](C)O)C(C)C)C(=O)N[C@@H](CC(N)=O)C(=O)N[C@@H](CCCCNC(=O)CC[C@H](NC(=O)CC[C@H](NC(=O)COCCOCCNC(=O)COCCOCCNC(=O)CC[C@H](NC(=O)CCCCCCCCCCCCCCCCC(=O)O)C(=O)O)C(=O)O)C(=O)O)C(N)=O [Example 8, N^ε29-[(4S)-4-carboxy-4-[[(4S)-4-carboxy-4-[[2-[2-[2-[[2-[2-[2-[[(4S)-4-carboxy-4-(17-carboxyheptadecanoylamino)butanoyl]amino]ethoxy]ethoxy]acetyl]amino]ethoxy]ethoxy]acetyl]amino]butanoyl]amino]butanoyl]-[Aib2,Leu10,Lys17,Ala18,Glu21,Leu27,Lys29]-Glucagon amide] (H-H[Aib]QGTFTSDLSKYLDSKAAQEFVQWLLNK([γGlu-γGlu-AEEA-AEEA-γGlu-C18 diacid])-NH2; N-terminus assumed)
2 | 1.2 | CC(C)C[C@H](NC(=O)[C@H](Cc1ccc(O)cc1)NC(=O)[C@H](CCCCN)NC(=O)[C@H](CO)NC(=O)[C@H](CC(C)C)NC(=O)[C@H](CC(=O)O)NC(=O)[C@H](CO)NC(=O)[C@@H](NC(=O)[C@H](Cc1ccccc1)NC(=O)[C@@H](NC(=O)CNC(=O)[C@H](CCC(N)=O)NC(=O)C(C)(C)NC(=O)[C@@H](N)Cc1c[nH]cn1)[C@@H](C)O)[C@@H](C)O)C(=O)N[C@@H](CC(=O)O)C(=O)N[C@@H](CCCCNC(=O)CC[C@H](NC(=O)CC[C@H](NC(=O)COCCOCCNC(=O)COCCOCCNC(=O)CC[C@H](NC(=O)CCCCCCCCCCCCCCCCC(=O)O)C(=O)O)C(=O)O)C(=O)O)C(=O)N[C@@H](CCCNC(=N)N)C(=O)N[C@@H](CCCNC(=N)N)C(=O)N[C@@H](C)C(=O)N[C@@H](CCCNC(=N)N)C(=O)N[C@@H](CCC(=O)O)C(=O)N[C@@H](Cc1ccccc1)C(=O)N[C@H](C(=O)N[C@@H](CCC(N)=O)C(=O)N[C@@H](Cc1c[nH]c2ccccc12)C(=O)N[C@@H](CC(C)C)C(=O)N[C@@H](CC(C)C)C(=O)N[C@@H](CC(N)=O)C(=O)N[C@H](C(N)=O)[C@@H](C)O)C(C)C [Example 10, N^ε16-[(4S)-4-carboxy-4-[[(4S)-4-carboxy-4-[[2-[2-[2-[[2-[2-[2-[[(4S)-4-carboxy-4-(17-carboxyheptadecanoylamino)butanoyl]amino]ethoxy]ethoxy]acetyl]amino]ethoxy]ethoxy]acetyl]amino]butanoyl]amino]butanoyl]-[Aib2,Leu10,Lys16,Arg20,Glu21,Leu27]-Glucagon amide] (H-H[Aib]QGTFTSDLSKYLDK([γGlu-γGlu-AEEA-AEEA-γGlu-C18 diacid])RRAREFVQWLLNT-NH2; N-terminus assumed)
3 | 3.9 | CC(C)C[C@H](NC(=O)[C@H](Cc1ccc(O)cc1)NC(=O)[C@H](CCCCN)NC(=O)[C@H](CO)NC(=O)[C@H](CC(C)C)NC(=O)[C@H](CC(=O)O)NC(=O)[C@H](CO)NC(=O)[C@@H](NC(=O)[C@H](Cc1ccccc1)NC(=O)[C@@H](NC(=O)CNC(=O)[C@H](CCC(N)=O)NC(=O)C1(NC(=O)[C@@H](N)Cc2c[nH]cn2)CCC1)[C@@H](C)O)[C@@H](C)O)C(=O)N[C@@H](CCC(=O)O)C(=O)N[C@@H](CCC(=O)O)C(=O)N[C@@H](CCCNC(=N)N)C(=O)N[C@@H](CCCNC(=N)N)C(=O)N[C@@H](C)C(=O)N[C@@H](CCCNC(=N)N)C(=O)N[C@@H](CC(=O)O)C(=O)N[C@@H](Cc1ccccc1)C(=O)N[C@H](C(=O)N[C@@H](CCC(N)=O)C(=O)N[C@@H](Cc1c[nH]c2ccccc12)C(=O)N[C@@H](CC(C)C)C(=O)N[C@@H](CC(C)C)C(=O)N[C@@H](CCCCNC(=O)CNC(=O)[C@H](CO)NC(=O)[C@H](CCC(=O)O)NC(=O)CNC(=O)[C@H](CO)NC(=O)CC[C@H](NC(=O)CC[C@H](NC(=O)CCCCCCCCCCCCCCCCC(=O)O)C(=O)O)C(=O)O)C(=O)N[C@H](C(N)=O)[C@@H](C)O)C(C)C [Example 16, N^ε28-[2-[[(2S)-2-[[(2S)-4-carboxy-2-[[2-[[(2S)-2-[[(4S)-4-carboxy-4-[[(4S)-4-carboxy-4-(17-carboxyheptadecanoylamino)butanoyl]amino]butanoyl]amino]-3-hydroxypropanoyl]amino]acetyl]amino]butanoyl]amino]-3-hydroxypropanoyl]amino]acetyl]-[Acb2,Leu10,Glu15,Glu16,Arg20,Leu27,Lys28]-Glucagon amide] (I: H-H[Ac4c]QGTFTSDLSKYLEERRARDFVQWLLKT-NH2 / II: {C18 diacid-γGlu-γGlu}-SGESG; amide I:28-II:C; N-terminus assumed)
4 | 8.5 | CC(C)C[C@H](NC(=O)[C@H](Cc1c[nH]c2ccccc12)NC(=O)[C@H](C)NC(=O)[C@@H](NC(=O)[C@H](Cc1ccccc1)NC(=O)[C@H](CCC(=O)O)NC(=O)[C@H](CCCNC(=N)N)NC(=O)[C@H](C)NC(=O)[C@H](CCCNC(=N)N)NC(=O)[C@H](CCCNC(=N)N)NC(=O)[C@H](CCCCNC(=O)CC[C@H](NC(=O)COCCOCCNC(=O)COCCOCCNC(=O)CC[C@H](NC(=O)CC[C@H](NC(=O)CCCCCCCCCCCCCCCCC(=O)O)C(=O)O)C(=O)O)C(=O)O)NC(=O)[C@H](CC(=O)O)NC(=O)[C@H](CC(C)C)NC(=O)[C@H](Cc1ccc(O)cc1)NC(=O)[C@H](CCCCN)NC(=O)[C@H](CO)NC(=O)[C@H](CC(C)C)NC(=O)[C@H](CC(=O)O)NC(=O)[C@H](CO)NC(=O)[C@@H](NC(=O)[C@H](Cc1ccccc1)NC(=O)[C@@H](NC(=O)CNC(=O)[C@H](CCC(N)=O)NC(=O)C(C)(C)NC(=O)[C@@H](N)Cc1c[nH]cn1)[C@@H](C)O)[C@@H](C)O)C(C)C)C(=O)N[C@@H](CC(C)C)C(=O)N[C@@H](CC(N)=O)C(=O)N[C@H](C(N)=O)[C@@H](C)O [Example 19, N^ε29-[(4S)-4-carboxy-4-[[2-[2-[2-[[2-[2-[2-[[(4S)-4-carboxy-4-[[(4S)-4-carboxy-4-(17-carboxyheptadecanoylamino)butanoyl]amino]butanoyl]amino]ethoxy]ethoxy]acetyl]amino]ethoxy]ethoxy]acetyl]amino]butanoyl]-[Aib2,Leu10,Lys16,Arg20,Glu21,Ala24,Leu27]-Glucagon amide] (H-H[Aib]QGTFTSDLSKYLDK([γGlu-AEEA-AEEA-γGlu-γGlu-C18 diacid])RRAREFVAWLLNT-NH2; N-terminus assumed)
